Assay results: paper PMC6715688, “Mycobacterial dynamin-like protein IniA mediates membrane fission” (Nature Communications, 2019)

Columns and labels:
IniA [1] = target: IniA (Mycolicibacterium smegmatis, UniProt I7FE16); assay: isothermal titration calorimetry; type: binding
IniA [2] = target: IniA (Mycolicibacterium smegmatis, UniProt I7FE16, K73A); assay: isothermal titration calorimetry; type: binding
Source text: isothermal titration calorimetry on IniA | showing only a twofold reduction in affinity for GMPPNP or GTP | the mutant IniA largely maintained interactions with GDP

Chain of IniA (Mycolicibacterium smegmatis, UniProt I7FE16) (I7FE16 entry or part of it): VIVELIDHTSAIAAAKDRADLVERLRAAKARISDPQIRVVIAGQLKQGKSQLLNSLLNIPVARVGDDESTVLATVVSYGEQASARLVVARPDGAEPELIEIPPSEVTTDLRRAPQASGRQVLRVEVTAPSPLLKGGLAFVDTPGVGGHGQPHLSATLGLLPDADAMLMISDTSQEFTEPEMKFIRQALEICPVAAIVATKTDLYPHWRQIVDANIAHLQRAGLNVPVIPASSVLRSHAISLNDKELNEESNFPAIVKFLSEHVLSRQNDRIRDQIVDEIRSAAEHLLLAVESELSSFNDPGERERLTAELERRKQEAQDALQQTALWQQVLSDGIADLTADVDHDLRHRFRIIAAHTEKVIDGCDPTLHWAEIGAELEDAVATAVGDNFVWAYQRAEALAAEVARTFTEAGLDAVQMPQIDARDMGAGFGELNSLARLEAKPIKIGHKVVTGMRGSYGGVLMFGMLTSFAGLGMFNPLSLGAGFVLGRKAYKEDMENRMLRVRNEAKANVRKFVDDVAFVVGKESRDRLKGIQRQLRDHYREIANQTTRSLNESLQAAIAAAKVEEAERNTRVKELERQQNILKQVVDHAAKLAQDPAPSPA
Chain of IniA (Mycolicibacterium smegmatis, UniProt I7FE16, K73A) (I7FE16 entry or part of it K73A): as the sequence (I7FE16 entry or part of it) above

What does the source list for `Nc1nc2c(ncn2[C@@H]2O[C@H](COP(=O)(O)OP(=O)(O)O)[C@@H](O)[C@H]2O)c(=O)[nH]1` [GDP]?
Kd (IniA [1]): 750 nM; Kd (IniA [2]): ~1060 nM

What does the source list for `Nc1nc2c(ncn2[C@@H]2O[C@H](COP(=O)(O)OP(=O)(O)OP(=O)(O)O)[C@@H](O)[C@H]2O)c(=O)[nH]1` [GTP]?
Kd (IniA [1]): 740 nM; Kd (IniA [2]): ~1430 nM

How did the Kd (IniA [1]) turn out when `Nc1nc2c(ncn2[C@@H]2O[C@H](COP(=O)(O)OP(=O)(O)NP(=O)(O)O)[C@@H](O)[C@H]2O)c(=O)[nH]1` [GMPPNP] was run?
The Kd was 9010 nM.

What about the Kd (IniA [2]) of the same molecule?
The Kd was ~23200 nM.
